Reference: patent US9314510B2, “Human laminin α2 chain LG3 domain and active peptides promoting cell adhesion, spreading, migration, and neurite outgrowth” (SNU R&DB Foundation, priority 2011, dated 2016)
Ends that are not written are not given here.

B1: rLG3: recombinant His6-tagged human laminin α2 chain LG3 domain, amino acids 2537 to 2745 (protein, listed as Homo sapiens)
chain: VELSPVPIDVGTEINLSFSTKNESGIILLGSGGTPAPPRRKRRQTGQAYYVILLNRGRLEVHLSTGARTMRKIVIRPEPNLFHDGREHSVHVERTRGIFTVQVDENRRYMQNLTVEQPIEVKKLFVGGAPPEFQPSPLRNIPPFEGCIWNLVINSVPMDFARPVSFKNADIGRCAHQKLREDEDGAAPAEIVIQPEPVPTPAFPTPTPV
modifications: His6 tag

Tests used:
PC12 cells [1] = assay: Cell adhesion assay on coated plates (crystal violet, absorbance 570 nm); type: cell-based, rat; conditions: 1 h, serum-free; for cell adhesion: PC12 cells on coated plates, laminin 5 μg/mL, rLG proteins 25 μg/mL, peptides 62.5 μg/mL (0 to 125 μg/mL in FIG. 2B)
Protocol: The cell adhesion assay was performed as described in a paper published previously by the present inventors (Kim, J. M., et al, Exp. Cell Res, 2005).
Specifically, 24-well culture plates (Nunc, Denmark) were coated with 5 μg/mL human placental laminin (Sigma-Aldrich, St. Louis, Mo.) or 25 μg/mL rLG domain proteins for 12 h at 4° C. The peptides were also coated on the plates by drying for 12 h at room temperature. The substrate-coated plates were blocked with 1% heat-inactivated bovine serum albumin (BSA) in PBS for 1 h at 37° C. and then washed with PBS.
The cells were trypsinized with trypsin/EDTA and resuspended in serum-free culture medium. The cells were added at a density of 2×10^5 cells/500 μL to each plate and incubated in serum-free culture medium for 1 h at 37° C. After incubation, unattached cells were removed by rinsing twice with PBS. The attached cells were fixed with 10% formalin for 15 min and then stained with 0.5% crystal violet for 1 h. Plates were gently washed with distilled water three times and dissolved with 2% SDS for 5 min. Absorbance was measured at 570 nm using a microplate reader (BioRad).
First, PC12 cells were cultured on plates coated with varying amounts of five kinds of Ln2-PG3 peptides and then cell adhesion was observed. The peptides were coated in concentrations ranging from 0 to 125 μg/mL on plates by drying them for 12 h at room temperature.
(§1) The present inventors compared the cellular activities of Ln2-LG3-P2 peptide to scrambled peptide (SEQ ID NO:20, NWEIRCIPGNPF) of Ln2-LG3-P2 peptide and Ln2-LG3-P1 peptide to Ln2-LG3-P5 peptide at a concentration of 62.5 μg/mL where the cell adhesion activity was the maximum. […] PC12 cells were cultured on plates which were coated in the same way for 3 h in serum-free medium and the cell spreading was observed.
(§2) Specifically, to observe cell adhesion, spreading, migration, and neurite outgrowth promotion, the methods described in Experimental examples <2-1> to <2-3> were used and PC12 cells were cultured on plates coated with laminin (5 μg/mL), rLG3 (25 μg/mL), and rLG3-M1 (25 μg/mL) and observed. To observe cell adhesion, PC12 cells were incubated on the coated plates for 1 h and to observe cell spreading, PC12 cells were incubated on the coated plates for 3 h. To observe cell migration, PC12 cells were incubated on the coated plates for […].
(§3) To measure cell adhesion, spreading, migration, and neurite outgrowth promotive activities of PC12 cells using the prepared synthetic peptides that are N- and C-terminal truncated or C-terminal added peptides of the Ln2-LG3-P2 peptide, peptides described in Table 1 were coated onto plates at 62.5 μg/mL and PC12 cells were seeded thereon.

PC12 cells [2] = assay: Cell spreading assay on coated plates (cell surface area); type: cell-based, rat; conditions: 3 h, laminin 5 μg/mL, rLG proteins 25 μg/mL, peptides 62.5 μg/mL
Protocol: To determine cell spreading assays, the cells cultured on plates coated with each rLG domain protein for 1 h or 3 h in Experimental example <2-1> were fixed with 10% formalin. Then, the fixed cells were stained with 0.05% crystal violet for 1 h and plates were gently washed with PBS three times. The surface area of cells was measured with Image-Pro plus software (Version 4.5; Media Cybernetics, Silver Spring, Md.).
as §1, §2, §3

PC12 cells [3] = assay: Immunostaining of actin stress fibers and focal adhesions; type: cell-based, rat; conditions: PC12 cells on coated chamber slides, 3 h, serum-free
Protocol: Specifically, for immunostaining, PC12 cells were incubated on Lab-Tek chamber slides (Nalge Nunc International, Rochester, N.Y.) coated with laminin (5 μg/mL), rLG domain proteins (25 μg/mL), or Scrambled peptide (SP) (25 μg/well) in serum-free medium for 3 h at 37° C. Lab-Tek chamber slides were coated with BSA for the control. After rinsing with PBS, PC12 cells were fixed with 3.7% formalin for 20 min and permeabilized with 0.5% Triton X-100 for 5 min. PC12 cells were incubated with primary antibodies for 12 h at 4° C. The primary antibodies used were 1:500 anti-vinculin (Sigma-Aldrich 9131), or 1:300 rhodamin-phalloidin (Invitrogen R154) antibodies. After rinsing with PBS, PC12 cells were immunostained with FITC-conjugated anti-mouse IgG antibody (Jackson ImmunoResearch Laboratories, West Grove, Pa.) or rhodamin-conjugated anti-mouse IgG antibody (Santa Cruz Biotechnology) for 1 h at room temperature. After being washed three times with PBS, the stained PC12 cells were mounted and photographed using a confocal laser scanning microscope (FV300; Olympus, Japan).

integrin β1 = molecular target: T1, integrin β1 (Rattus norvegicus, UniProt P49134); assay: Immunoprecipitation of PKCα, PKCδ and FAK with His6-rLG3 or integrin β1; type: cell-based; conditions: PC12 cells on coated dishes, 30 min
T1 construct: whether PKCα and -δ exist as associated complexes in PC12 cells seeded on laminin-, rLG3-, and Ln2-LG3-P2-coated dishes; endogenous in cells; host or cells: PC12 cells
Protocol: Specifically, for immunoprecipitation, PC12 cells were starved for 12 h with RPMI 1640 medium containing 0.1% FBS. Cells were detached and resuspended in serum-free medium with 0.1% BSA. PC12 cells (4×10^6 cells/100-mm dish) were seeded on laminin (5 μg/mL)-, rLG3 (25 μg/mL)-, or Ln2-LG3-P2 (25 μg/well)-coated dishes and allowed to attach for 30 min at 37° C. After incubation, cells were washed with ice-cold PBS, lysed with RIPA buffer containing a protease inhibitor cocktail. The lysates were centrifuged and the supernatants were preincubated with 50 μL of immobilized protein G beads (Upstate Biotechnology Inc.) for 1 h at 4° C. to remove nonspecific binding. The supernatants were incubated with anti-His6 (Roche, Mannheim, Germany), anti-integrin (Santa Cruz Biotechnology), or anti-PKCδ (Santa Cruz Biotechnology) antibodies for 2 h at 4° C. The immunocomplexes were precipitated with immobilized protein G beads for 12 h at 4° C. After centrifugation, beads carrying the immune complexes were washed four times with RIPA buffer. Immunoprecipitates were resuspended in SDS sample buffer, boiled for 5 min, and analysed by Western blotting.

T1 sequence (P49134 21-799): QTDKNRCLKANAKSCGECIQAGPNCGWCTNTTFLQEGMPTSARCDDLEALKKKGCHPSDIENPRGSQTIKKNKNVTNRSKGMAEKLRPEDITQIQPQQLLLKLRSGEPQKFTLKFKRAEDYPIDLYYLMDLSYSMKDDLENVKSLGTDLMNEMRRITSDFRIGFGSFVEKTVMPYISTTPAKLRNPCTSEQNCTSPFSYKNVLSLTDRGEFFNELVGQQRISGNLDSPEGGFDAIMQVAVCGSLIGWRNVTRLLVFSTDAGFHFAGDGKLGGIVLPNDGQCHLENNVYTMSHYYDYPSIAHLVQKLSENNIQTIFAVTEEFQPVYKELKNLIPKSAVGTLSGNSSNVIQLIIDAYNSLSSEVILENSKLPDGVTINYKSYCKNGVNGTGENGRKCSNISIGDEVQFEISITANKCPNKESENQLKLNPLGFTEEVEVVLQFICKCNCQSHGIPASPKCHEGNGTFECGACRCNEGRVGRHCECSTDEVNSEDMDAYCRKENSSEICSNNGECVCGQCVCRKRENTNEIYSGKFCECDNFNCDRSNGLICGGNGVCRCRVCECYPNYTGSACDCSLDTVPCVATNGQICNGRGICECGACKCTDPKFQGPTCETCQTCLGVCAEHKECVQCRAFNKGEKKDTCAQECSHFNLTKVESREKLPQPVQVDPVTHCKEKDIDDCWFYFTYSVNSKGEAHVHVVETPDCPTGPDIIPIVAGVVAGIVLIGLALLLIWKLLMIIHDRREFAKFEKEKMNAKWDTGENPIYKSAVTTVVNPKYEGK

Row | Molecule | cell adhesion (PC12 cells [1]) | cell spreading (PC12 cells [2]) | actin stress fiber formation and focal adhesions (PC12 cells [3]) | cell spreading (immunostaining) (PC12 cells [3]) | proteins in integrin β1 immunoprecipitates (integrin β1) | coating concentration at which cell adhesion activity reached the maximum level (PC12 cells [1]; PC12 cells) [µg/mL] | proteins in anti-His6 immunoprecipitates (integrin β1)
1 | laminin [reference compound] | promoted cell adhesion | promoted cell spreading | formed actin stress fibers and focal adhesions | spread very well | PKCα, PKCδ, and FAK were also observed |  | 
2 | RNIPPFEGCIWN (RNIPPFEGCIWN-NH2; listed as Homo sapiens) [Ln2-LG3-P2, 12-mer peptide, position 2675 to 2686 in human laminin α2 chain] | promoted the cell adhesion | comparable to that of rLG3 | formed stress fiber formation, and focal adhesions but to a lesser degree than those on laminin | spread well | PKCα, PKCδ, and FAK were also observed | 62.5 | 
3 | B1 | adhered to rLG1, rLG3, and rLG4 in a dose-dependent manner | induced cell spreading | formed stress fiber formation, and focal adhesions but to a lesser degree than those on laminin | spread well | PKCα, PKCδ, and FAK were also observed |  | PKCα, PKCδ, and FAK were observed
